This note sets out measurements from patent US4556517A, “Carbapenem derivatives” (Shionogi & Co., Ltd., priority 1981, dated 1985).

The test system of one test is Enterobacter cloacae 233. The test can be described thus: Antibacterial Spectrum, agar dilution method. The class given is cell-based. Particulars: inoculum 10^6 cells/ml, sensitivity disc agar, 37° C. overnight, read-out: Minimum Inhibitory Concentration. The method, then:
(§1) Determined by agar dilution method;
(§2) Inoculum size is 10^6 cells/ml;
(§3) Cultivation in sensitivitydisc agar at 37° C. overnight.
(Agar dilution tests growth on a series of plates holding different concentrations.)

The subject of test [1] is Escherichia coli NIHJ JC-2. In words: Antibacterial Spectrum, agar dilution method. The format is cell-based. Particulars: NIHJJC2, inoculum 10^6 cells/ml, sensitivity disc agar, 37° C. overnight, read-out: Minimum Inhibitory Concentration. How it is done: as §1, §2, §3
Test [2] relates to Klebsiella pneumoniae SRL-1. In words: Antibacterial Spectrum, agar dilution method. Particulars: SRL1, inoculum 10^6 cells/ml, sensitivity disc agar, 37° C. overnight, read-out: Minimum Inhibitory Concentration. The class given is cell-based. How it is done: as §1, §2, §3
The test system of another test is Klebsiella sp. 363(R). In words: Antibacterial Spectrum, agar dilution method. Particulars: inoculum 10^6 cells/ml, sensitivity disc agar, 37° C. overnight, read-out: Minimum Inhibitory Concentration. The class given is cell-based. How it is done: as §1, §2, §3
The next test concerns Proteus mirabilis PR-4. In words: Antibacterial Spectrum, agar dilution method. The class given is cell-based. Particulars: PR4, inoculum 10^6 cells/ml, sensitivity disc agar, 37° C. overnight, read-out: Minimum Inhibitory Concentration. How it is done: as §1, §2, §3
Test [3] relates to Pseudomonas aeruginosa ATCC 25619. The test can be described thus: Antibacterial Spectrum, agar dilution method. As to conditions: ATCC25619, inoculum 10^6 cells/ml, sensitivity disc agar, 37° C. overnight, read-out: Minimum Inhibitory Concentration. The class given is cell-based. The method, then:
as §1, §2, §3

For test [4], the system named is Staphylococcus aureus 209P JC-1. The test can be described thus: Antibacterial Spectrum, agar dilution method. The format is cell-based. As to conditions: inoculum 10^6 cells/ml, sensitivity disc agar, 37° C. overnight, read-out: Minimum Inhibitory Concentration. The method, then: as §1, §2, §3
Test [5] relates to Streptococcus pneumoniae I. In words: Antibacterial Spectrum, agar dilution method. Particulars: inoculum 10^6 cells/ml, sensitivity disc agar, 37° C. overnight, read-out: Minimum Inhibitory Concentration. The class given is cell-based. The method, then:
as §1, §2, §3

Test [6] has as its target β-lactamase of Enterobacter cloacae 92 (cephalosporinase type) (Enterobacter cloacae, UniProt P05364). The test can be described thus: β-Lactamase inhibitory test, cephalosporinase-type. The format is biochemical. As to conditions: 10 minutes preincubation, room temperature, minimum concentration to inhibit color change of indicator. The method, then:
*1 producing lactamase of cephalosporinasetype
(§4) *3 The test compound was incubated with enzyme at room temperature for 10
(§5) minutes prior to adding an indicator and the minimum concentration to
(§6) inhibit color change was determined.

The subject of test [7] is β-lactamase of Klebsiella sp. 363 (penicillinase type). In words: β-Lactamase inhibitory test, penicillinase-type. The class given is biochemical. As to conditions: 10 minutes preincubation, room temperature, minimum concentration to inhibit color change of indicator. The method, then:
*2 producing lactamase of penicillinasetype
as §4, §5, §6

Converted amounts (≈) assume the structure as drawn. Some results are limits rather than exact numbers.

Sequence of β-lactamase of Enterobacter cloacae 92 (cephalosporinase type) (P05364 21-381): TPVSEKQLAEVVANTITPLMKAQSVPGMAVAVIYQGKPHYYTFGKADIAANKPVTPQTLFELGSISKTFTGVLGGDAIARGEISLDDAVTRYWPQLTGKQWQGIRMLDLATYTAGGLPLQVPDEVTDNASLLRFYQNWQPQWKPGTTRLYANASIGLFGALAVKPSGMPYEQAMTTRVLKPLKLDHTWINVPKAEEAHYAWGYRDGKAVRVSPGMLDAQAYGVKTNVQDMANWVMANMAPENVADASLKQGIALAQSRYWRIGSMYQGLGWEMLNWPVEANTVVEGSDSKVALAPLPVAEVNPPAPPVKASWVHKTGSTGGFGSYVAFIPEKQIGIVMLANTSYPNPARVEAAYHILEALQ

With `CC(OS(=O)(=O)O)C1C(=O)N2C(C(=O)O)=C([S+]([O-])CO)CC12` (stereo not drawn) [Dihydro PLM C, 3-hydroxymethylsulfinyl-6-(1-hydroxysulfonyloxyethyl)-7-oxo-1-azabicyclo[3.2.0]-hept-2-ene-2-carboxylic acid], the MIC in the test on Enterobacter cloacae 233 was greater than 100 µg/mL; in [1], 12.5 µg/mL (≈ 35.2 µM); in [2] it was 25 µg/mL (≈ 70.4 µM); with Klebsiella sp. 363(R), 12.5 µg/mL (≈ 35.2 µM); in the test on Proteus mirabilis PR-4, 25 µg/mL (≈ 70.4 µM); in test [3] it was greater than 100 µg/mL. Moreover, the MIC in test [4] came to 12.5 µg/mL (≈ 35.2 µM); in test [5], 3.1 µg/mL (≈ 8.72 µM). Further, the “Minimum Effective Concentration” value amounted to 0.008 µg/mL in test [6] and 0.004 µg/mL in test [7].

On to `CC(OS(=O)(=O)O)C1C(=O)N2C(C(=O)O)=C(SC(O)O)CC12` (stereo not drawn) [Deoxy PLM C, 3-dihydroxymethylthio-6-(1-hydroxysulfonyloxyethyl)-7-oxo-1-azabicyclo[3.2.0]-hept-2-ene-2-carboxylic acid], for which the MIC in the test on Enterobacter cloacae 233 is 3.13 µg/mL (≈ 8.81 µM); in test [1], 0.78 µg/mL (≈ 2.2 µM); in [2] it was 0.78 µg/mL (≈ 2.2 µM); in the test on Klebsiella sp. 363(R), 0.78 µg/mL (≈ 2.2 µM); with Proteus mirabilis PR-4 it was 0.78 µg/mL (≈ 2.2 µM); in test [3], greater than 100 µg/mL. Besides, the MIC in test [4] turned out to be 0.78 µg/mL (≈ 2.2 µM); in test [5], 0.2 µg/mL (≈ 0.563 µM). The figures for the “Minimum Effective Concentration” value in [6] and in [7] were 0.002 µg/mL and 0.125 µg/mL, respectively.

For `CC(OS(=O)(=O)O)C1C(=O)N2C(C(=O)O)=C(SCC(=O)O)CC12` (stereo not drawn) [Deoxy PLM B, 3-Carboxymethylthio-6-(1-hydroxysulfonyloxyethyl)-7-oxo-1-azabicyclo[3.2.0]-hept-2-ene-2-carboxylic acid], the MIC in the test with Enterobacter cloacae 233 is 6.25 µg/mL (≈ 17 µM); in test [1] it was 1.56 µg/mL (≈ 4.25 µM); in test [2], 0.78 µg/mL (≈ 2.12 µM); with Klebsiella sp. 363(R), 1.56 µg/mL (≈ 4.25 µM); in the test with Proteus mirabilis PR-4, 0.78 µg/mL (≈ 2.12 µM); in [3], greater than 100 µg/mL. Also, the MIC in test [4] came out at 3.13 µg/mL (≈ 8.52 µM); in test [5], 1.56 µg/mL (≈ 4.25 µM). Moreover, the “Minimum Effective Concentration” value in test [6] came out at 0.002 µg/mL; in test [7], 0.063 µg/mL.
